Assays:
[1] = target: JAK1 (Homo sapiens (Human), UniProt P23458); assay: LanthaScreen JAK biochemical assay (JAK1)
[2] = target: JAK2 (Homo sapiens (Human), UniProt O60674); assay: LanthaScreen JAK biochemical assay (JAK2); conditions: for Ki: read-out: JAK 2 (pKi) (converted)
[3] = target: JAK3 (Homo sapiens (Human), UniProt P52333); assay: LanthaScreen JAK biochemical assay (JAK3)
[4] = target: Tyk2 (Homo sapiens (Human), UniProt P29597); assay: LanthaScreen JAK biochemical assay (Tyk2); conditions: for Ki: read-out: Tyk 2 (pKi) (converted)
Chain of Tyk2 (P29597 whole entry): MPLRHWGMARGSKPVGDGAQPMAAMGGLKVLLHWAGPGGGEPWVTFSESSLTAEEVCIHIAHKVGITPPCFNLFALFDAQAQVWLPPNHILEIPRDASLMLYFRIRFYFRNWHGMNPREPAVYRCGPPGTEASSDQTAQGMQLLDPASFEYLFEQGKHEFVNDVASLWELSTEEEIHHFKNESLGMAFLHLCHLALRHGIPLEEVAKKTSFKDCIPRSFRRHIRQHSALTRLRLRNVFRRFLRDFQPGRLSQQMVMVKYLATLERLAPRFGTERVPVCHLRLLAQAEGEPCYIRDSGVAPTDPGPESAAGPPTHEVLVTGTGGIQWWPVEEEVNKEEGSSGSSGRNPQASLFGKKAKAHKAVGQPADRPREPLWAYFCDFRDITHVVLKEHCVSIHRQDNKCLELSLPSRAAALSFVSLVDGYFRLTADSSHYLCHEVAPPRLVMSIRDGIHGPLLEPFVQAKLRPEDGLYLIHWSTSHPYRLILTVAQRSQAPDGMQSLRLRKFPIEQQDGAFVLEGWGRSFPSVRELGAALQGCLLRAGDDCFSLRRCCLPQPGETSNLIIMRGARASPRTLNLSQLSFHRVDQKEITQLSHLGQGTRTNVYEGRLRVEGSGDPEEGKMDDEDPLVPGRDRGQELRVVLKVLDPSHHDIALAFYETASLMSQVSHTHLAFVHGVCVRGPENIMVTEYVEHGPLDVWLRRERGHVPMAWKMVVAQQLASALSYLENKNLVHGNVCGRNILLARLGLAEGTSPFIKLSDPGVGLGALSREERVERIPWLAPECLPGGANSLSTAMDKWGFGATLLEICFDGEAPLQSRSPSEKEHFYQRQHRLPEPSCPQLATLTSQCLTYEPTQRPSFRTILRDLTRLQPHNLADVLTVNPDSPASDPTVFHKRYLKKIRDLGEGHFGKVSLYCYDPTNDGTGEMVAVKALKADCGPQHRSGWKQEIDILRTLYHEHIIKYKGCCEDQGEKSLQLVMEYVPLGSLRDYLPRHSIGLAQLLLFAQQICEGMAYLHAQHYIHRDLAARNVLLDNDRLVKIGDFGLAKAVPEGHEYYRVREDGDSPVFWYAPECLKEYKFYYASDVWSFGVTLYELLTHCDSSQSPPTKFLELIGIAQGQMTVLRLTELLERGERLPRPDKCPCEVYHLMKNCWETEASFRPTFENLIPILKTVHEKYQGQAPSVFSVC

[5] = system: oxazolone-induced colitis; assay: Mouse model of oxazolone-induced colitis; format: in vivo, BALB/C mice; conditions: mouse, PO, 1, 3, and/or 10 mg/kg BID
Protocol: Assay 7: Mouse Model of Oxazalone-Induced Colitis
Oxazolone-induced colitis is an experimental model that has a histological resemblance to human ulcerative colitis (Heller et al. Immunology, 2002, 17, 629-638). Adult BALB/C mice from Harlan were used in the assay. On day 1, animals were lightly anesthetized with isoflurane and the hairs between the shoulder were carefully removed before oxazolone (4%, 150 μL, 4:1 acetone:olive oil formulation) or vehicle solution was slowly applied for skin sensitization. Seven days after skin sensitization, the mice were fasted overnight, anesthetized with isoflurane inhalation, and a 1 mL syringe equipped with a 3.5-F catheter, filled with oxazolone solution, was inserted carefully about 4 cm into the colon of the mouse. Following insertion, 50 μL of the oxazolone solution (1%, 1:1 ethanol:water formulation) was injected very slowly (over 30 sec using an injection pump) into the colon. The catheter was removed and the mice were held vertically (head down) for 2 min to ensure that the entire oxazolone solution remained inside the colon. Drug treatment (PO, BID or TID) or vehicle was initiated a day prior to the oxazolone intrarectal (IR) challenge. Two-day post oxazolone intrarectal challenge, the Disease Activity Index (DAI) was assessed by treatment-blinded experimenters for each mouse according to the criteria score: stool consistency score (0, normal; 2, loose; 4, diarrhea), gross bleeding score (0, absence; 2, blood tinged; 4, presence), and weight loss score (0, none; 1, 1%-5%; 2, 5%-10%; 3, 10%-20%; 4, more than 20%); DAI=average of (stool consistency score+gross bleeding score+weight loss score).
Selected compounds of the invention were tested in the assay. Efficacy in the model is evidenced by a decrease in DAI score as compared with the score from vehicle treated animals.

[6] = system: IL-4 induced STAT6 phosphorylation in THP-1 human monocytic cells; assay: Cellular JAK potency assay, THP-1; conditions: for THP-1 IL4 pIC50: IL-4 induced STAT6 phosphorylation, THP-1 cells; for IC50: Homo sapiens, THP-1, read-out: THP-1 IL4 pIC50 (converted)
[7] = system: IL-13 induced STAT6 phosphorylation in BEAS-2B human lung epithelial cells; assay: AlphaScreen cellular JAK potency assay, BEAS-2B; conditions: for BEAS2B pIC50: IL-13 induced STAT6 phosphorylation, BEAS-2B cells; for IC50: Homo sapiens, BEAS-2B, read-out: BEAS2B pIC50 (converted)

Chain of JAK2 (O60674 whole entry): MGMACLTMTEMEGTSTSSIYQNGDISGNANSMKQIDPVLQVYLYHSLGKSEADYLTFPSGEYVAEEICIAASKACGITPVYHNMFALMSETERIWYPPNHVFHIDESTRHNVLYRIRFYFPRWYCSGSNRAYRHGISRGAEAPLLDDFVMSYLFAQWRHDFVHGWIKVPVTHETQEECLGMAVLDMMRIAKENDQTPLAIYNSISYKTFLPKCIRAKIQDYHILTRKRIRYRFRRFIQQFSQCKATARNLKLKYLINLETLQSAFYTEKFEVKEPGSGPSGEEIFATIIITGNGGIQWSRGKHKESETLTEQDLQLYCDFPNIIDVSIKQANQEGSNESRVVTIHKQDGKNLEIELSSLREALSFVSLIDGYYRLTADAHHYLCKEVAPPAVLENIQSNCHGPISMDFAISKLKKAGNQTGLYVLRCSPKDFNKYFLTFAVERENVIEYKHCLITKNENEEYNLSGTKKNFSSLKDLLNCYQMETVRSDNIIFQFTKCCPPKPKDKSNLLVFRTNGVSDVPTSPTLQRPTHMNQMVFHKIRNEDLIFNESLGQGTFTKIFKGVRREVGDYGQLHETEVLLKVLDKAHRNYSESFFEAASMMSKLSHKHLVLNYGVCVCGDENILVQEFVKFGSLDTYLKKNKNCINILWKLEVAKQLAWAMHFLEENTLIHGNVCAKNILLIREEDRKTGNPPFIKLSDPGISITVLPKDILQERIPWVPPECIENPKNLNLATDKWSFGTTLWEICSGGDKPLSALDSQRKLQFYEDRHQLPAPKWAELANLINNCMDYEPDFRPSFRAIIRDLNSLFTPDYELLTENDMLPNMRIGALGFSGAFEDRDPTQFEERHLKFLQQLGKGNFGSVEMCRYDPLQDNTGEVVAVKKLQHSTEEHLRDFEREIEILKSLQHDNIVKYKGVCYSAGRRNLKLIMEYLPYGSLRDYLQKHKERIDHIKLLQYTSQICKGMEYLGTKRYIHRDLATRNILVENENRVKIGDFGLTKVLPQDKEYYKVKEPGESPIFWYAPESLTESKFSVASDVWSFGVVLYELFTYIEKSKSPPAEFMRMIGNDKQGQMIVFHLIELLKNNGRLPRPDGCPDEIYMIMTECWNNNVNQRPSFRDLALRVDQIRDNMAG
Chain of JAK1 (P23458 whole entry): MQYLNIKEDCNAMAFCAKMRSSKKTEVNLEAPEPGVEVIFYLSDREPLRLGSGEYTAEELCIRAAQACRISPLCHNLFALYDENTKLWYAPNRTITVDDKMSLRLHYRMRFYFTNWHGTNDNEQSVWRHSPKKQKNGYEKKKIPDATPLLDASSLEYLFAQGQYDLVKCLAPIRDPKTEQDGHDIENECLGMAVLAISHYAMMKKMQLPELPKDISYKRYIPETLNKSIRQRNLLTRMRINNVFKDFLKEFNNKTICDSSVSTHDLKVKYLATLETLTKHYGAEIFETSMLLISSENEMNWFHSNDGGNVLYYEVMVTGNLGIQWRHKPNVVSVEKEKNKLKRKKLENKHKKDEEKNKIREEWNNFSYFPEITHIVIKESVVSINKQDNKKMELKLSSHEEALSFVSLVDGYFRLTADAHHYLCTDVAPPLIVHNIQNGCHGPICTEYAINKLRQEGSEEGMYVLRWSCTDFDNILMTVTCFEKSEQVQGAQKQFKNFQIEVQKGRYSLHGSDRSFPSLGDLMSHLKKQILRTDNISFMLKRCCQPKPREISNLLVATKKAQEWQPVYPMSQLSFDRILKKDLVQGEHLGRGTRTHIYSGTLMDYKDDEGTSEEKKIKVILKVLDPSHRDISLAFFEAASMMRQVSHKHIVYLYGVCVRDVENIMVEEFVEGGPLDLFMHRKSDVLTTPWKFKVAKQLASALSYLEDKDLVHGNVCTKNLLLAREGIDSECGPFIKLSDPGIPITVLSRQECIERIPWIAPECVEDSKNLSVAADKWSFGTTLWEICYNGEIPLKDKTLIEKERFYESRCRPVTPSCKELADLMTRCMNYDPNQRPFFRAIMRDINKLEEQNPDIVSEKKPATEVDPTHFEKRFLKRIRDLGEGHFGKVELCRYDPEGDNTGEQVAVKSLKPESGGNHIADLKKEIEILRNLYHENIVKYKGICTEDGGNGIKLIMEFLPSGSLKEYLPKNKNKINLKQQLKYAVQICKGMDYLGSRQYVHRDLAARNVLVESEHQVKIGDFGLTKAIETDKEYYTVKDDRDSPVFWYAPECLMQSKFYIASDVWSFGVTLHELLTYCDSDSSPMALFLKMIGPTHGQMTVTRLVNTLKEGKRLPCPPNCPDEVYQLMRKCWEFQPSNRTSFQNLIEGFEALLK

Row | SMILES | JAK 1 (pKi) [1] | JAK 2 (pKi) [2] | JAK 3 (pKi) [3] | Tyk 2 (pKi) [4] | decrease in DAI score as compared with vehicle treated animals [5] | THP-1 IL4 pIC50 [6] | BEAS2B pIC50 [7] | Ki [2] | Ki [4] | IC50 [6] | IC50 [7] | Ki ([1]; read-out: JAK 1 (pKi) (converted))
1 | CCC(C)C(=O)N1C2CCC1CC(Nc1nc(Nc3cc(C)[nH]n3)cc3ncccc13)C2 (centres unmarked) [Example 2-6] | B (B represents a pKi value between 9 and 10 (Ki between 1 nM and 0.1 nM)) | B (B represents a pKi value between 9 and 10 (Ki between 1 nM and 0.1 nM)) | C (C represents a pKi value between 7 and 9 (Ki between 100 nM and 1 nM)) | C (C represents a pKi value between 7 and 9 (Ki between 100 nM and 1 nM)) | did not exhibit a statistically significant decrease | B (B represents a pEC50 value between 6.7 and 7.5 (EC50 between 200 nM and 32 nM)) | A (A represents a pEC50 value≥7.5 (EC50≤32 nM)) |  |  |  |  | 
2 | CCS(=O)(=O)N1[C@@H]2CC[C@H]1C[C@H](Nc1nc(Nc3cc(C)[nH]n3)cc3ncccc13)C2 [Example 7, N^5-((1R,3s,5S)-8-(ethylsulfonyl)-8-azabicyclo[3.2.1]octan-3-yl)-N^7-(5-methyl-1H-pyrazol-3-yl)-1,6-naphthyridine-5,7-diamine] |  |  |  |  | did not exhibit a statistically significant decrease |  |  | 0.1 to 1 nM | 0.1 to 1 nM | < 31.6 nM | < 31.6 nM | 
3 | Cc1cc(Nc2cc3ncccc3c(N[C@@H]3C[C@H]4CCC[C@@H](C3)N4CC(=O)N(C)C)n2)n[nH]1 [Example 1-38] | B (B represents a pKi value between 9 and 10 (Ki between 1 nM and 0.1 nM)) | B (B represents a pKi value between 9 and 10 (Ki between 1 nM and 0.1 nM)) | C (C represents a pKi value between 7 and 9 (Ki between 100 nM and 1 nM)) |  | statistically significant decrease | B (B represents a pEC50 value between 6.7 and 7.5 (EC50 between 200 nM and 32 nM)) |  |  |  |  |  | 
4 | Cc1cc(Nc2cc3ncccc3c(N[C@@H]3C[C@H]4CCC[C@@H](C3)N4S(=O)(=O)c3ccccc3)n2)n[nH]1 [Example 9, N^7-(5-methyl-1H-pyrazol-3-yl)-N^5-((1R,3s,5S)-9-(phenylsulfonyl)-9-azabicyclo[3.3.1]nonan-3-yl)-1,6-naphthyridine-5,7-diamine] |  |  |  |  | did not exhibit a statistically significant decrease |  |  | 0.1 to 1 nM | 0.1 to 1 nM | < 31.6 nM | < 31.6 nM | 0.1 to 1 nM
5 | Cc1cc(Nc2cc3ncccc3c(N[C@@H]3C[C@H]4CC[C@@H](C3)N4S(=O)(=O)N3CC(C#N)C3)n2)n[nH]1 [Example 13, 1-(((1R,3s,5S)-3-((7-((5-methyl-1H-pyrazol-3-yl)amino)-1,6-naphthyridin-5-yl)amino)-8-azabicyclo[3.2.1]octan-8-yl)sulfonyl)azetidine-3-carbonitrile] |  |  |  |  | did not exhibit a statistically significant decrease |  |  |  | 0.1 to 1 nM | 31.6 to 200 nM | 31.6 to 200 nM | 
6 | CCOCC(=O)N1[C@@H]2CCC[C@H]1C[C@H](Nc1nc(Nc3cc(C)[nH]n3)cc3ncccc13)C2 [Example 2-17] | B (B represents a pKi value between 9 and 10 (Ki between 1 nM and 0.1 nM)) | B (B represents a pKi value between 9 and 10 (Ki between 1 nM and 0.1 nM)) | C (C represents a pKi value between 7 and 9 (Ki between 100 nM and 1 nM)) |  | did not exhibit a statistically significant decrease | B (B represents a pEC50 value between 6.7 and 7.5 (EC50 between 200 nM and 32 nM)) | A (A represents a pEC50 value≥7.5 (EC50≤32 nM)) |  |  |  |  | 
7 | COCCS(=O)(=O)N1[C@@H]2CCC[C@H]1C[C@H](Nc1nc(Nc3cc(C)[nH]n3)cc3ncccc13)C2 [Example 4-19] |  |  | C (C represents a pKi value between 7 and 9 (Ki between 100 nM and 1 nM)) | B (B represents a pKi value between 9 and 10 (Ki between 1 nM and 0.1 nM)) | did not exhibit a statistically significant decrease | A (A represents a pEC50 value≥7.5 (EC50≤32 nM)) | A (A represents a pEC50 value≥7.5 (EC50≤32 nM)) |  |  |  |  | 

— patent US10072026B2, “Crystalline form of 3-((1R,3s,5S)-3-((7-((5-methyl-1H-pyrazol-3-yl)amino)-1,6-naphthyridin-5-yl)amino)-8-azabicyclo[3.2.1]octan-8-yl)propanenitrile” (priority 2015, dated 2018)
